The record followed here is patent US20230147040A1, “METHOD FOR PROGNOSIS PREDICTION OF SKIN CANCER AND USE THEREOF” (PUBLIC UNIVERSITY CORPORATION NAGOYA CITY UNIVERSITY, priority 2020, published 2023).

Common to all, as to type: in vivo
Experiment [1] concerns Merkel cell carcinoma. Put plainly: Clinical course of Merkel cell carcinoma cases under treatment.
The test system of experiment [2] is cutaneous angiosarcoma. Briefly: Clinical course of cutaneous angiosarcoma cases under treatment. As to conditions: primary lesion in the head.
The test system of experiment [3] is G6PD. Briefly: G6PD activity in patient serum (G6PD assay kit). As to conditions: Case 4, avelumab and IMRT in combination. As to the method:
For 50 patient serum specimens of 19 cases, the G6PD activity was measured using a G6PD assay kit (Abeam, ab102529). The average activity value of the 50 specimens was 11.45 mU/ml.
The course of Merkel cell carcinoma was confirmed for the cases (Case 1 to 3) of 3 specimens having a particularly high G6PD activity (19 mU/ml or more) among the 50 specimens. In addition, the course of Merkel cell carcinoma was confirmed for a case (Case 4) having a decreased G6PD activity. In FIGS. 6 to 8 shown below, the vertical axis represents the G6PD activity (mU/ml), and the horizontal axis represents the period.

The mark [4] stands for this setting: Case B, wPTX, then changed to eribulin.

On to `COc1cc([C@@H]2c3cc4c(cc3[C@@H](O[C@@H]3O[C@@H]5CO[C@@H](C)O[C@H]5[C@H](O)[C@H]3O)[C@H]3COC(=O)[C@H]23)OCO4)cc(OC)c1O` [VP-16], for which the therapeutic effect entry in experiment [1] (Case 1, stage IV, systemic lymph node metastasis after surgical resection and radiation therapy, combination therapy of CBDGB and VP-16) is given as “no therapeutic effect was observed”. With `C=C1C[C@@H]2CC[C@@]34C[C@H]5O[C@H]6[C@@H](O3)[C@H]3O[C@H](CC[C@@H]3O[C@H]6[C@H]5O4)CC(=O)C[C@@H]3[C@@H](OC)[C@@H](C[C@H](O)CN)O[C@H]3C[C@H]3O[C@@H](CC[C@@H]1O2)C[C@@H](C)C3=C` [eribulin], the clinical course result in experiment [2] (setting [4]) was “pneumothorax (PD) was developed”. For the compound `CC(=O)O[C@@]12CO[C@@H]1C[C@H](O)[C@@]1(C)C(=O)[C@H](O)C3=C(C)[C@@H](OC(=O)[C@H](O)[C@@H](NC(=O)OC(C)(C)C)c4ccccc4)C[C@@](O)([C@@H](OC(=O)c4ccccc4)[C@H]21)C3(C)C` [wDTX], the clinical course result in experiment [2] (Case C, upon administration of wDTX) was “pneumothorax was developed”. On to `CC(=O)O[C@H]1C(=O)[C@@]2(C)[C@H]([C@H](OC(=O)c3ccccc3)[C@]3(O)C[C@H](OC(=O)[C@H](O)[C@@H](NC(=O)c4ccccc4)c4ccccc4)C(C)=C1C3(C)C)[C@]1(OC(C)=O)CO[C@@H]1C[C@@H]2O` [wPTX], for which the clinical course result was “the performance status (PS) deteriorated” in experiment [2] (Case A, wPTX therapy and radiation therapy); “parotid lymph node metastasis was observed” in experiment [2] (setting [4]).

In the case of avelumab, the clinical outcome in experiment [1] (Case 1, stage IV, trial of avelumab after failed combination chemotherapy) was “death of current disease was caused after several months”; in experiment [1] (Case 4, stage III, avelumab in combination with IMRT), “complete remission (CR)”. For the same compound, the “PET/CT accumulation in right submandibular lymph node” value in experiment [1] (Case 4, stage III, avelumab alone, after 3 months) is on record as “enhancement of the accumulation was observed”. The G6PD activity result in experiment [3] was “significantly reduced”.
